Results from patent publication US20020035061A1, “COMPOSITIONS AND METHODS FOR TREATING INFECTIONS USING CATIONIC PEPTIDES ALONE OR IN COMBINATION WITH ANTIBIOTICS” (priority 1996, published 2002).

How the values were obtained:
[1] = system: vancomycin / teicoplanin resistant enterococci; test: microbe, parasite or virus in culture; type: cell-based; settings: for Peptide MIC Alone: Amikacin section; for FIC: peptide + Amikacin
[2] = system: microorganisms with acquired resistance; test: microbe, parasite or virus in culture; type: cell-based; settings: for Peptide MIC: in µg/mL

## KKWWRRALQGLKTAGPAIQSVLNK [MBI 21A2]
[1]; E. faecalis EFS008
  Amikacin MIC + Peptide: 8 µg/mL
  Peptide MIC + Amikacin: 16 µg/mL
  Peptide MIC Alone: >128 µg/mL
  FIC: 0.19
[1]; E. faecium EFM020
  Amikacin MIC + Peptide: 2 µg/mL
  Peptide MIC + Amikacin: 64 µg/mL
  Peptide MIC Alone: 128 µg/mL
  FIC: 0.56
[2]; A. calcoaceticus AC001
  Gentamicin MIC + Peptide: 4 µg/mL
  Peptide MIC + Gentamicin: 8 µg/mL
[2]; A. calcoaceticus AC001, Gentamicin section
  Peptide MIC Alone: 16 µg/mL
[2]; E. coli 1
  Peptide MIC + Piperacillin: 2 µg/mL
  Piperacillin MIC + Peptide: 8 µg/mL
[2]; E. coli 1, Piperacillin section
  Peptide MIC Alone: 4 µg/mL
[2]; H. influenzae 1
  Peptide MIC + Piperacillin: 64 µg/mL
  Piperacillin MIC + Peptide: 4 µg/mL
[2]; H. influenzae 1, Piperacillin section
  Peptide MIC Alone: >128 µg/mL
[2]; H. influenzae 2
  Peptide MIC + Piperacillin: 64 µg/mL
  Piperacillin MIC + Peptide: 4 µg/mL
[2]; H. influenzae 2, Piperacillin section
  Peptide MIC Alone: >128 µg/mL
[2]; P. aeruginosa PA022
  Amikacin MIC + Peptide: 16 µg/mL
  Gentamicin MIC + Peptide: 2 µg/mL
  Peptide MIC + Amikacin: 2 µg/mL
  Peptide MIC + Gentamicin: 4 µg/mL
[2]; P. aeruginosa PA022, Amikacin section
  Peptide MIC Alone: 8 µg/mL
[2]; P. aeruginosa PA022, Gentamicin section
  Peptide MIC Alone: 8 µg/mL
[2]; P. aeruginosa PA41
  Ciprofloxacin MIC + Peptide: 1 µg/mL
  Peptide MIC + Ciprofloxacin: 16 µg/mL
[2]; P. aeruginosa PA41, Ciprofloxacin section
  Peptide MIC Alone: 64 µg/mL
[2]; P. aeruginosa PA77
  Ciprofloxacin MIC + Peptide: 0.25 µg/mL
  Peptide MIC + Ciprofloxacin: 32 µg/mL
[2]; P. aeruginosa PA77, Ciprofloxacin section
  Peptide MIC Alone: 64 µg/mL
[2]; P. aeruginosa, combination with Ciprofloxacin
  Peptide MIC: 16
[2]; S. aureus, combination with Ciprofloxacin
  Peptide MIC: 4
[2]; S. aureus, combination with Mupirocin
  Peptide MIC: 32
[2]; S. maltophilia 3
  Peptide MIC + Piperacillin: 16 µg/mL
  Piperacillin MIC + Peptide: 16 µg/mL
[2]; S. maltophilia 3, Piperacillin section
  Peptide MIC Alone: 32 µg/mL
[2]; S. maltophilia 11
  Peptide MIC + Piperacillin: 64 µg/mL
  Piperacillin MIC + Peptide: 8 µg/mL
[2]; S. maltophilia 11, Piperacillin section
  Peptide MIC Alone: 128 µg/mL
[2]; S. maltophilia SMA020
  Gentamicin MIC + Peptide: 0.125 µg/mL
  Peptide MIC + Gentamicin: 8 µg/mL
[2]; S. maltophilia SMA020, Gentamicin section
  Peptide MIC Alone: 16 µg/mL
[2]; S. maltophilia SMA021
  Gentamicin MIC + Peptide: 0.125 µg/mL
  Peptide MIC + Gentamicin: 8 µg/mL
[2]; S. maltophilia SMA021, Gentamicin section
  Peptide MIC Alone: 16 µg/mL
[2]; S. marcescens 1
  Peptide MIC + Piperacillin: 4 µg/mL
  Piperacillin MIC + Peptide: 16 µg/mL
[2]; S. marcescens 1, Piperacillin section
  Peptide MIC Alone: >128 µg/mL
[2]; peptide + Amikacin, P. aeruginosa PA022
  FIC: 0.50
[2]; peptide + Ciprofloxacin, P. aeruginosa PA41
  FIC: 0.50
[2]; peptide + Ciprofloxacin, P. aeruginosa PA77
  FIC: 0.63
[2]; peptide + Gentamicin, A. calcoaceticus AC001
  FIC: 1.00
[2]; peptide + Gentamicin, P. aeruginosa PA022
  FIC: 0.56
[2]; peptide + Gentamicin, S. maltophilia SMA020
  FIC: 0.50
[2]; peptide + Gentamicin, S. maltophilia SMA021
  FIC: 0.50
[2]; peptide + Piperacillin, E. coli 1
  FIC: 0.53
[2]; peptide + Piperacillin, H. influenzae 1
  FIC: 0.31
[2]; peptide + Piperacillin, H. influenzae 2
  FIC: 0.28
[2]; peptide + Piperacillin, S. maltophilia 3
  FIC: 0.75
[2]; peptide + Piperacillin, S. maltophilia 11
  FIC: 0.75
[2]; peptide + Piperacillin, S. marcescens 1
  FIC: 0.27
